This is an account of results in paper PMC9318133 (International Journal of Molecular Sciences, 2022).

For one experiment, the system named is CD-1 mice. Briefly: Visual placing response test. Format: in vivo, mouse.
The next experiment addresses T1, mouse CB2 receptors (Mus musculus, UniProt P47936).
T1 construct: membranes from the mouse brain and spleen were used, respectively; from tissue; host or cells: mouse spleen membranes, CD-1 mice
As to the kind of experiment: [3H]-CP-55,940 competition binding, mouse spleen membranes. The procedure: Following excision from mice, tissues were suspended in 50 mM Tris HCl, pH 7.4, at 4 °C. The mouse brain and spleen tissues were homogenized with a Polytron and subsequently centrifuged for 10 min at 2000× g. The resulting supernatants were filtered and centrifuged for 20 min at 40,000× g, and the pellets were used for competition binding experiments.
Competition binding experiments were carried out by incubating 0.5 nM [3H]-CP-55,940 (Perkin Elmer Life and Analytical Sciences, Waltham, MA, USA) and different concentrations of the tested compounds for 90 or 60 min at 30 °C for CB1 or CB2 receptors, respectively. […] Non-specific binding was determined in the presence of 1 μM WIN 55,212-2 [92]. Bound and free radioactivity were separated by filtering the assay mixture through Whatman GF/C glass fiber filters using a Brandel cell harvester (Brandel Instruments, Unterföhring, Germany). The filter-bound radioactivity was counted using a Packard Tri Carb 2810 TR scintillation counter (Perkin Elmer Life and Analytical Sciences, Waltham, MA, USA).
The protein concentration was determined according to a Bio-Rad method with bovine serum albumin as a reference standard. Inhibitory binding constants, Ki, were calculated from the IC50 values according to the Cheng and Prusoff equation:Ki = IC50/(1 + [C*]/KD*) where [C*] is the concentration of the radioligand and KD* its dissociation constant. […]

In a further experiment the target is T2, human CB2 receptors (Homo sapiens, UniProt P34972).
T2 construct: host or cells: CHO cells
Briefly: Cyclic AMP assay (forskolin-stimulated) in CHO cells transfected with human CB2 receptors. It is filed as cell-based.

T2 sequence (P34972 whole entry): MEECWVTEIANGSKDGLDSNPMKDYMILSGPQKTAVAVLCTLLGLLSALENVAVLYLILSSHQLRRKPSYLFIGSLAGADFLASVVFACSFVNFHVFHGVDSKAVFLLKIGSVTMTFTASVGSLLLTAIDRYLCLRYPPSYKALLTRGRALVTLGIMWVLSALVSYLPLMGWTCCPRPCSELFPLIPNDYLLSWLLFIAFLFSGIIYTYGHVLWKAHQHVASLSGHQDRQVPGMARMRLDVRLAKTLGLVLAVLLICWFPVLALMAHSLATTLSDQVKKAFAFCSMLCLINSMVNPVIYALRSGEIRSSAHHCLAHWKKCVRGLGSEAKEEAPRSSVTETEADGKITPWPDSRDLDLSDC
T1 sequence (P47936 whole entry): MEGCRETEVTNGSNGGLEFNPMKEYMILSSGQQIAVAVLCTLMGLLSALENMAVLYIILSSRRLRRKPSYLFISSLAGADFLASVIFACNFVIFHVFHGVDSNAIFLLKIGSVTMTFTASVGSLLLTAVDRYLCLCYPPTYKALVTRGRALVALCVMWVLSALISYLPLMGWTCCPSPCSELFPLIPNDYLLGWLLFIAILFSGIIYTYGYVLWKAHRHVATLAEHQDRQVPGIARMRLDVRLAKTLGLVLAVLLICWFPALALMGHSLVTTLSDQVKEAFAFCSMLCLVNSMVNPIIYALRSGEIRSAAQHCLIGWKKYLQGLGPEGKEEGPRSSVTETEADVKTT
Description for human CB2 receptors: CHO cells transfected with human CB1 or CB2 receptors were washed with PBS, detached with trypsin, and centrifuged for 10 min at 200× g.
Functional experiments were analyzed by non-linear regression analysis using the equation for a sigmoid concentration–response curve (GraphPad Prism, San Diego, CA, USA). All the data are expressed as the mean ± SEM of three independent experiments.

What is called ED50 is the dose at which the effect has come halfway, by size or by number of responders. As usually defined, the Ki is a dissociation constant, usually derived from enzyme kinetics or from competition with a known ligand. Low readings indicate a stronger hold on the target, high ones a looser hold on the target. As a reminder, the IC50 is the concentration that gives 50% inhibition. As for `CCCCCn1cc(Cc2cccc3ccccc23)c2ccccc21` [JWH-175, 3-(1-naphthalenylmethyl)-1-pentyl-1H-indole], the “effect on visual placing response” value with CD-1 mice (0.01–30 mg/kg i.p., monitored over 5 h) is on record as “dose-dependently reduced the visual placing response”. Further, the ED50 in the experiment on CD-1 mice (Mus musculus, ip, mice, ED50 + SEM) was 5.2 ± 0.08 mg/kg. Moreover, the “lowest dose tested with significant inhibitory effect on visual placing response” value in the experiment with CD-1 mice (i.p.) amounted to 0.01 mg/kg. Also, the Ki at mouse CB2 receptors turned out to be 487 ± 39 nM. Besides, the IC50 on human CB2 receptors turned out to be 864 ± 61 nM.
